Assay results published in patent publication US20110152194A1, “CHIMERIC NATRIURETIC POLYPEPTIDES AND METHODS FOR INHIBITING CARDIAC REMODELING” (MAYO FOUNDATION FOR MEDICAL EDUCATION AND RESEARCH, priority 2008, published 2011).
Values joined by “and” are separate entries in the source; they are usually repeats but may differ in a detail not shown here. Equal values may be shown once. Read-outs that look alike come from different tables or passages of the source.

Experiments:
normal anesthetized dogs = details: dog, in vivo
male mongrel dogs = experiment: In vivo actions of CD-NP, CNP and CNP-C continuous i.v. infusion in anesthetized dogs; set-up: species or system dog; details: for ANG II, angiotensin II / Aldosterone / CO, cardiac output / DFRNa, distal fractional reabsorption of Na+ / GFR, glomerular filtration rate / MAP, mean arterial pressure / PAP, pulmonary arterial pressure / PCWP, pulmonary capillary wedge pressure / PFRNa, proximal fractional reabsorption of Na+ / PRA, plasma renin activity / PVR, pulmonary vascular resistance / RAP, right atrial pressure / RBF / RVR, renal vascular resistance / SVR, systemic vascular resistance: dogs, 75 min i.v. infusion of CD-NP 50 ng/kg/min or equimolar CNP
[1] = in vivo; cited from earlier work

PSLRDPRPNAPSTSA [C-terminus]
DFRNa, distal fractional sodium reabsorption (normal anesthetized dogs): 98.7 ± 0.3% | GFR, glomerular filtration rate (normal anesthetized dogs): 34 ± 6 mL/min | PFRNa, proximal fractional sodium reabsorption (normal anesthetized dogs): 77.9 ± 2.7% | RBF, renal blood flow (normal anesthetized dogs): 213 ± 19 mL/min | UcGMPV, urinary cGMP excretion (normal anesthetized dogs): 1674 ± 213 pmol/min | DFRNa, distal fractional sodium reabsorption (normal anesthetized dogs; iv): 97.8 ± 0.5% | GFR, glomerular filtration rate (normal anesthetized dogs; iv): 44 ± 6 mL/min | PFRNa, proximal fractional sodium reabsorption (normal anesthetized dogs; iv): 71.0 ± 2.6 % | RBF, renal blood flow (normal anesthetized dogs; iv): 198 ± 27 mL/min | UcGMPV, urinary cGMP excretion (normal anesthetized dogs; iv): 2275 ± 231 pmol/min | natriuretic and diuretic action (urinary excretion of sodium, urine flow) (normal anesthetized dogs; iv): natriuretic and diuretic

B-type natriuretic peptide [BNP]
GFR (normal anesthetized dogs): lack of increase

GLSKGCFGLKLDRIGSMSGLGCGKSLG [CNP-C]
ANG II (male mongrel dogs; dog, in vivo, iv): did not result in any significant changes | GFR (male mongrel dogs; dog, in vivo, iv): did not result in any significant changes | PRA (male mongrel dogs; dog, in vivo, iv): did not result in any significant changes | Pulmonary capillary wedge pressure (male mongrel dogs; dog, in vivo, iv): 4.3±0.8 mmHg and 3.4±0.8 mmHg | diuresis (male mongrel dogs; dog, in vivo, iv): did not result in any significant changes | mean arterial pressure (male mongrel dogs; dog, in vivo, iv): 132±6 mmHg and 128±5 mmHg | natriuresis (male mongrel dogs; dog, in vivo, iv): did not result in any significant changes | plasma cGMP (male mongrel dogs; dog, in vivo, iv): did not result in any significant changes | urinary cGMP excretion (male mongrel dogs; dog, in vivo, iv): did not result in any significant changes

GLSKGCFGLKLDRIGSMSGLGC [CNP]
ANG II, angiotensin II (male mongrel dogs; 30 min I): 7.5 ± 1.4 pg/mL | Aldosterone (male mongrel dogs; 30 min I): 21.1 ± 3.8 ng/dL | CO, cardiac output (male mongrel dogs; 30 min I): 3.3 ± 0.3 L/min | DFRNa, distal fractional reabsorption of Na+ (male mongrel dogs; 30 min I): 97 ± 0.4% | GFR, glomerular filtration rate (male mongrel dogs; 30 min I): 52.7 ± 6.7 mL/min | MAP, mean arterial pressure (male mongrel dogs; 30 min I): 127 ± 4 mmHg | PAP, pulmonary arterial pressure (male mongrel dogs; 30 min I): 12.8 ± 0.8 mmHg | PCWP, pulmonary capillary wedge pressure (male mongrel dogs; 30 min I): 4.6 ± 0.5 mmHg | PFRNa, proximal fractional reabsorption of Na+ (male mongrel dogs; 30 min I): 73 ± 2% | PRA, plasma renin activity (male mongrel dogs; 30 min I): 1.9 ± 0.6 ng/mL/h | PVR, pulmonary vascular resistance (male mongrel dogs; 30 min I): 1.9 ± 0.2 mmHgL^−1 · min | RAP, right atrial pressure (male mongrel dogs; 30 min I): 2.5 ± 0.3 mmHg | RBF (male mongrel dogs; 30 min I): 294.2 ± 30.8 mL/min | RVR, renal vascular resistance (male mongrel dogs; 30 min I): 0.47 ± 0.06 × 10^−3 mmHg · L^−1 · min | SVR, systemic vascular resistance (male mongrel dogs; 30 min I): 39.9 ± 2.7 mmHgL^−1 · min | ANG II, angiotensin II (male mongrel dogs; 60 min I): 10.4 ± 2.8 pg/mL | Aldosterone (male mongrel dogs; 60 min I): 21.4 ± 3.7 ng/dL | CO, cardiac output (male mongrel dogs; 60 min I): 2.8 ± 0.3 L/min | DFRNa, distal fractional reabsorption of Na+ (male mongrel dogs; 60 min I): 97 ± 0.9% | GFR, glomerular filtration rate (male mongrel dogs; 60 min I): 49.5 ± 4.2 mL/min | MAP, mean arterial pressure (male mongrel dogs; 60 min I): 128 ± 4 mmHg | PAP, pulmonary arterial pressure (male mongrel dogs; 60 min I): 13.2 ± 0.7 mmHg | PCWP, pulmonary capillary wedge pressure (male mongrel dogs; 60 min I): 5.6 ± 0.7 mmHg | PFRNa, proximal fractional reabsorption of Na+ (male mongrel dogs; 60 min I): 72 ± 1% | PRA, plasma renin activity (male mongrel dogs; 60 min I): 2.5 ± 0.7 ng/mL/h | PVR, pulmonary vascular resistance (male mongrel dogs; 60 min I): 2.1 ± 0.3 mmHgL^−1 · min | RAP, right atrial pressure (male mongrel dogs; 60 min I): 2.9 ± 0.3 mmHg | RBF (male mongrel dogs; 60 min I): 277.8 ± 29.2 mL/min | RVR, renal vascular resistance (male mongrel dogs; 60 min I): 0.49 ± 0.06 × 10^−3 mmHg · L^−1 · min | SVR, systemic vascular resistance (male mongrel dogs; 60 min I): 46.9 ± 2.7^† mmHgL^−1 · min | ANG II, angiotensin II (male mongrel dogs; Post-I): 14.4 ± 5.0 pg/mL | Aldosterone (male mongrel dogs; Post-I): 22.0 ± 4.2 ng/dL | CO, cardiac output (male mongrel dogs; Post-I): 2.6 ± 0.1 L/min | DFRNa, distal fractional reabsorption of Na+ (male mongrel dogs; Post-I): 97 ± 0.8% | GFR, glomerular filtration rate (male mongrel dogs; Post-I): 48.8 ± 5.6 mL/min | MAP, mean arterial pressure (male mongrel dogs; Post-I): 128 ± 4 mmHg | PAP, pulmonary arterial pressure (male mongrel dogs; Post-I): 13.9 ± 0.7 mmHg | PCWP, pulmonary capillary wedge pressure (male mongrel dogs; Post-I): 6.4 ± 0.8 mmHg | PFRNa, proximal fractional reabsorption of Na+ (male mongrel dogs; Post-I): 73 ± 2% | PRA, plasma renin activity (male mongrel dogs; Post-I): 3.2 ± 1.0 ng/mL/h | PVR, pulmonary vascular resistance (male mongrel dogs; Post-I): 2.2 ± 0.4 mmHgL^−1 · min | RAP, right atrial pressure (male mongrel dogs; Post-I): 3.5 ± 0.5 mmHg | RBF (male mongrel dogs; Post-I): 272.0 ± 24.5 mL/min | RVR, renal vascular resistance (male mongrel dogs; Post-I): 0.49 ± 0.06 × 10^−3 mmHg · L^−1 · min | SVR, systemic vascular resistance (male mongrel dogs; Post-I): 48.7 ± 2.5^† mmHgL^−1 · min | ANG II, angiotensin II (male mongrel dogs; Pre-I (pre-infusion)): 11.7 ± 4.7 pg/mL | Aldosterone (male mongrel dogs; Pre-I (pre-infusion)): 15.1 ± 4.2 ng/dL | CO, cardiac output (male mongrel dogs; Pre-I (pre-infusion)): 3.8 ± 0.3 L/min | DFRNa, distal fractional reabsorption of Na+ (male mongrel dogs; Pre-I (pre-infusion)): 98 ± 0.6% | GFR, glomerular filtration rate (male mongrel dogs; Pre-I (pre-infusion)): 52.2 ± 5.3 mL/min | MAP, mean arterial pressure (male mongrel dogs; Pre-I (pre-infusion)): 123 ± 4 mmHg | PAP, pulmonary arterial pressure (male mongrel dogs; Pre-I (pre-infusion)): 13.1 ± 0.8 mmHg | PCWP, pulmonary capillary wedge pressure (male mongrel dogs; Pre-I (pre-infusion)): 5.0 ± 0.5 mmHg | PFRNa, proximal fractional reabsorption of Na+ (male mongrel dogs; Pre-I (pre-infusion)): 80 ± 3% | PRA, plasma renin activity (male mongrel dogs; Pre-I (pre-infusion)): 2.9 ± 1.4 ng/mL/h | PVR, pulmonary vascular resistance (male mongrel dogs; Pre-I (pre-infusion)): 1.8 ± 0.2 mmHgL^−1 · min | RAP, right atrial pressure (male mongrel dogs; Pre-I (pre-infusion)): 2.6 ± 0.3 mmHg | RBF (male mongrel dogs; Pre-I (pre-infusion)): 273.4 ± 25.5 mL/min | RVR, renal vascular resistance (male mongrel dogs; Pre-I (pre-infusion)): 0.49 ± 0.07 × 10^−3 mmHg · L^−1 · min | SVR, systemic vascular resistance (male mongrel dogs; Pre-I (pre-infusion)): 33.8 ± 2.9 mmHgL^−1 · min | half-life [1]: about a minute and a half
